Data published in ChEMBL document CHEMBL1123745, “Preparation and biological evaluation of a potential photoaffinity label for the prostaglandin H2/thromboxane A2 receptor” (J Med Chem, 1987).

Legend:
[1] = target: T1, Thromboxane A2 receptor (Homo sapiens) (UniProt P21731); assay: Ability to inhibit the U-46,619 (TXA2 agonist,3uM) induced aggregation in human platelets; range (5-20 uM); assay type: functional
T1 sequence (whole entry): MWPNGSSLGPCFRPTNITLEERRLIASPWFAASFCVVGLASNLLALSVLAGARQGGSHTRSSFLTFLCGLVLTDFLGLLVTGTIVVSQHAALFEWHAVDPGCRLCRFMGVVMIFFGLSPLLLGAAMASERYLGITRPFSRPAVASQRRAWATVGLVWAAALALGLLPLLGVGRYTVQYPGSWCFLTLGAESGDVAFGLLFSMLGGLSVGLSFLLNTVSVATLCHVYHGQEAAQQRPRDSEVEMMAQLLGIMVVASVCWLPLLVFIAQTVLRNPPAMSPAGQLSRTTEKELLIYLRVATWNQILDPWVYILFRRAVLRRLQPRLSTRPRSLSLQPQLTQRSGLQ

[2] = Ability to inhibit ADP (10 uM) induced aggregation in human platelet rich plasma (PRP) relative to 13-azaprostanoic acid; assay type: functional
[3] = Ability to inhibit U-46,619 (0.5 uM) induced aggregation in human platelet rich plasma (PRP) relative to 13-azaprostanoic acid; assay type: functional
[4] = species: Homo sapiens; assay: Inhibition of [3H]U-46619 binding in dark incubated platelets; assay type: functional
[5] = target: T1, Thromboxane A2 receptor (Homo sapiens); assay: Ability to inhibit the U-46,619 (TXA2 agonist, 3 uM); assay type: functional
[6] = target: T1, Thromboxane A2 receptor (Homo sapiens); assay: Inhibition of UV-irridiated platelets relative to dark incubated platelets after irreversible inhibition of U-46,619 binding after photoactivation (p<0.02); settings: concentration not given here
[7] = target: T1, Thromboxane A2 receptor (Homo sapiens); assay: Ability to inhibit the U-46,619 (TXA2 agonist,3 uM) induced aggregation in human platelets was determined; assay type: functional

Row | Compound | ED50 [1] [µM] | further results
1 | O=C(O)CCCCCCC1CCCC1NCCCOc1ccccc1 (stereo not given) | 20 | 
2 | O=C(O)CCCCCCC1CCCC1NCCCc1ccc([N+](=O)[O-])cc1 (cis isomer) | 20 | 
3 | [N-]=[N+]=Nc1ccc(CCCNC2CCCC2CCCCCCC(=O)O)cc1 (cis isomer) | 20 | 
4 | O=C(O)CCCCCCC1CCCC1NCCCOc1ccc([N+](=O)[O-])cc1 (stereo in doubt) | 20 | 
5 | [N-]=[N+]=Nc1ccc(OCCCNC2CCCC2CCCCCCC(=O)O)cc1 (trans isomer) | 20 | Inhibition [2]: 50%; Inhibition [3]: 38%
6 | [N-]=[N+]=Nc1ccc(CCCNC2CCCC2CCCCCCC(=O)O)cc1 (trans isomer) [listing 1 of 2 here] |  | Inhibition [2]: 19%; Inhibition [3]: 63%
7 | [N-]=[N+]=Nc1ccc(CCCNC2CCCC2CCCCCCC(=O)O)cc1[127I] (trans isomer) |  | Inhibition [2]: 15%; Inhibition [3]: 81%; Ki [4]: 0.29 µM
8 | Nc1ccc(CCCNC2CCCC2CCCCCCC(=O)O)cc1 (trans isomer) | 20 | 
9 | Nc1ccc(OCCCNC2CCCC2CCCCCCC(=O)O)cc1 (trans isomer) | 20 | 
10 | O=C(O)CCCCCCC1CCCC1NCCCOc1ccc([N+](=O)[O-])cc1 (trans isomer) | 20 | 
11 | O=C(O)CCCCCCC1CCCC1NCCCOc1ccccc1 (trans isomer) |  | ED50 [5]: 20 µM
12 | O=C(O)CCCCCCC1CCCC1NCCCc1ccc([N+](=O)[O-])cc1 (trans isomer) | 20 | 
13 | [N-]=[N+]=Nc1ccc(CCCNC2CCCC2CCCCCCC(=O)O)cc1 (trans isomer) [listing 2 of 2 here] | 20 | 
14 | [N-]=[N+]=Nc1ccc(CCCNC2CCCC2CCCCCCC(=O)O)cc1I (trans isomer) |  | inhibition [6]: 38%; ED50 [7]: 2 µM
